In patent publication US11066368B2, “Process for the preparation and particle size reduction of pirfenidone” (Laurus Labs Limited, priority 2016, dated 2021):

Experiment: Particle size (D90) after ethyl acetate / n-heptane anti-solvent crystallisation
Type: physicochemical
Method: The addition of antisolvent at different temperatures leads to formation of pirfenidone particles with different sizes; for instance: anti solvent addition at 0 to −10° C., preferably at −5±2° C. temperature forms small particles (D90: 50-100μ), at 0 to 10° C., preferably at 7±3° C. temperature forms particles of D90 at 100-150μ and at below 45° C. forms particles of D90 at 250-500μ.
(§1) Pirfenidone (83 g) was dissolved in ethyl acetate (425 mL), at 55-65° C., and then added to pre-cooled (−5±2° C.) n-Heptane (425 mL), over a period of 15-20 min, while maintaining temperature below 20° C. The suspension was stirred, at 0-5° C., for 1-2 h; filtered the product washed with chilled ethyl acetate (50 mL). The wet material was dried, at 60° C., under vacuum, for 6-8 h, to afford Pirfenidone as white colored powder. Yield: 65 g, HPLC purity 99.9%, PSD: (D90) 50-100μ.
as §1, with “Pirfenidone (81” for “Pirfenidone (83”, “pre-cooled (7±3°” for “pre-cooled (−5±2°”, “colored powder” for “colored powder.”, “Yield: 61” for “Yield: 65”, “(D90) 100-150μ.” for “(D90) 50-100μ.”
Pirfenidone (81 g) was dissolved in ethyl acetate (500 mL), at 50-55° C., and then added to pre-cooled (8±3° C.) n-Heptane (500 mL), over a period of 15-20 min, while maintaining temperature below 25° C. The suspension was stirred, at 5-10° C., for 1-2 h; filtered the product washed with chilled ethyl acetate (50 mL). The wet material was dried, at 60° C., under vacuum, for 6-8 h, to afford Pirfenidone as white colored powder Yield: 57 g, HPLC purity 99.9%, PSD: (D90) 150-250μ.
Pirfenidone (80 g) was dissolved in ethyl acetate (400 mL), at 55-65° C., and then added to n-Heptane (400 mL), over a period of 5-10 min, while maintaining temperature below 45° C. The suspension was stirred, at 25-30° C., for 1-2 h; filtered the product washed with chilled ethyl acetate (50 mL). The wet material was dried, at 60° C., under vacuum, for 6-8 h, to afford Pirfenidone as white colored powder, Yield: 55 g, HPLC purity 99.9%, PSD: (D90) 250-500μ.

Cc1ccc(=O)n(-c2ccccc2)c1 [Pirfenidone, 5-methyl-1-phenyl-2-1(H)-pyridone]
PSD: (D90) (Example 5: ethyl acetate solution, n-heptane anti-solvent at −5±2° C.): 50-100 μ | PSD: (D90) (Example 6: ethyl acetate solution, n-heptane anti-solvent at 7±3° C.): 100-150 μ | PSD: (D90) (Example 7: ethyl acetate solution, n-heptane anti-solvent at 8±3° C., temperature below 25° C.): 150-250 μ | PSD: (D90) (Example 8: ethyl acetate solution, n-heptane anti-solvent, temperature below 45° C.): 250-500 μ
